Reference: US5622947A, “Benzoheterocyclic compounds and vasopressin antagonist and oxytocin antagonist compositions containing a benzoheterocyclic compound” (Otsuka Pharmaceutical Co., Ltd., priority 1992, dated 1997)
Counter-ions that a name gives are not always drawn.

These molecules were tested against T1, Oxytocin receptor (uterin muscle membrane preparation) (Rattus norvegicus, UniProt P70536) (assay: Oxytocin receptor binding assay). Conditions: [3H]-oxytocin 10^-9 M, 25°, one hour, pH 8.0, uterin muscle membrane, DES-treated.
T1 construct: was homogenized, which was used as a membrane; from tissue; host or cells: uterine muscle membranes from diethylstilbestrol-treated animals
T1 sequence (P70536 1-388): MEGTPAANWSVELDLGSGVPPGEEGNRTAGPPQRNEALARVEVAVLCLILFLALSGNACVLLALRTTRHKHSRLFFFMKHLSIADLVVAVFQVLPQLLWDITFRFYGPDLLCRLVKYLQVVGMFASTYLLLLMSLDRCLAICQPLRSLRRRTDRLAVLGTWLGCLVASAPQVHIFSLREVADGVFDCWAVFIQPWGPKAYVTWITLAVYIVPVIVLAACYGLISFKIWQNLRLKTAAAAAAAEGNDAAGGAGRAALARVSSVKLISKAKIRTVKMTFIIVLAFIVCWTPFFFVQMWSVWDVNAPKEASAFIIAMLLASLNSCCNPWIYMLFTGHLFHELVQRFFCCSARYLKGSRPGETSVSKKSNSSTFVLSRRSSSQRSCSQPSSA
Procedure: Test-5 Oxytocin receptor binding assay
In accordance with Chan's method [by W. Y. Chan, et al.: Endocrinology, 126, 2095-2101 (1990)], the uterin muscle benn injected subcutaneously with diethylstilbe-sterol (DES) the day before and was homogenized, which was used as a membrane prepara tion. The membrane preparation (0.2 mg), [^3 H]-oxytocin (100,000 dpm, 10^-9 M), a test compound (10^-9 to 10^-5 M) were incubated at 25°. for one hour in 100 mM Tris-HCl buffer (pH=8.0, 250 μl) containing 5 mM MgCl2, 1 mM EDTA and 0.1% BSA. The mixture was filtered through a glass filter (GF/F) so as to separate the membrane preparation combining with [^3 H]-oxytocin, then, was washed twicw with the buffer (5 ml). The glass filter was put into a vial and mixed with Aquasole (a liquid scintillation cocktail). The amount of [^3 H]-oxytocin combining w ith the membrane was measured by a liquid scintillation counter. The rate of the inhibitory effect of the test compound was calculated according to the equation as follows: […]
C1 : the amount of [^3 H]-oxytocin combining with the membrane in the presence of a test compound (in known amount),
C0 : the amount of [^3 H]-oxytocin combinig with the membrane in the absence of a test compound,
B: the amount of [^3 H]-oxytocin combining with the membrane in the presence of the excess amount of oxytocin (5×10^-6 M).
The results are expressed as IC50 values, which is the concentration of the test compound required to achieve the inhibitory effect in the rate of 50%.
An IC50 of 46 nM was found for COc1cc(NC(=O)c2ccccc2C)ccc1C(=O)N1CCCC(OC(=O)CN2CCOCC2)c2cc(Cl)ccc21 (stereo not drawn) [Example 17, 5-(2-Morpholinoacetyloxy)-7-chloro-1-[2-methoxy-4-(2-methylbenzoylamino)benzoyl]-2,3,4,5-tetrahydro-1H-benzoazepine] in this work. An IC50 of 610 nM was found for COc1cc(C(=O)N2CCCC(CC(=O)N(C)C)c3cc(Cl)ccc32)ccc1NC(=O)c1ccccc1C (stereo not drawn) [Example 32, 5-Dimethylaminocarbonylmethyl-7-chloro-1-[3-methoxy-4-(2-methylbenzoylamino)benzoyl]-2,3,4,5-tetrahydro-1H-benzoazepine] in this work. An IC50 of 99 nM was found for COc1cc(NC(=O)c2ccccc2Br)ccc1C(=O)N1CCCC(CC(=O)N2CCC(NC(C)=O)CC2)c2cc(F)ccc21 (stereo not drawn) [Example 60, 5-[(4-Acetylamino-1-piperidinyl)carbonylmethyl]-7-fluoro-1-[2-methoxy-4-(2-bromobenzoylamino)benzoyl]-2,3,4,5-tetrahydro-1H-benzoazepine] in this work. An IC50 of 230 nM was found for COc1cc(NC(=O)Cc2ccccc2C)ccc1C(=O)N1CCCC(OC(=O)CN(C)C)c2cc(Cl)ccc21 (stereo not drawn) [Example 68, 5-(2-Dimethylaminoacetyloxy)-7-chloro-1-{2-methoxy-4-[2-(2-methylphenyl)acetylamino]benzoyl}-2,3,4,5-tetrahydro-1H-benzoazepine] in this work. An IC50 of 600 nM was found for Cc1ccccc1CC(=O)Nc1ccc(C(=O)N2CCCC(O)c3cc(Cl)ccc32)cc1 (stereo not drawn) [Example 106, 5-Hydroxy-7-chloro-1-{4-[2-(2-methylphenyl)acetylamino]benzoyl}-2,3,4,5-tetrahydro-1H-benzoazepine] in this work. An IC50 of 1300 nM was found for COc1cc(C(=O)N2CCCC(OC(=O)[C@@H](N)CCCCN)c3cc(Cl)ccc32)ccc1NC(=O)c1ccccc1C (stereo partly drawn) [Example 107] in this work. An IC50 of 1900 nM was found for Cc1ccccc1C(=O)Nc1ccc(C(=O)N2CCCC(CC(=O)N3CCN(C)CC3)c3cc(Cl)ccc32)c(Cl)c1 (stereo not drawn) [Example 108] in this work. An IC50 of 360 nM was found for Cc1ccccc1C(=O)Nc1ccc(C(=O)N2CCCC(CC(=O)N3CCN(C)CC3)c3cc(Cl)ccc32)cc1 (stereo not drawn) [Example 109] in this work. An IC50 of 220 nM was found for COc1cc(NC(=O)c2ccccc2C)ccc1C(=O)N1CCCC(CC(=O)N2CCC(N(C)C)CC2)c2cc(F)ccc21 (stereo not drawn) [Example 110] in this work. An IC50 of 250 nM was found for Cc1ccccc1C(=O)Nc1ccc(C(=O)N2CCCC(CC(=O)N(C)C)c3cc(Cl)ccc32)cc1 (stereo not drawn) [Example 111, 5-Dimethylaminocarbonylmethyl-7-chloro-1-[4-(2-methylbenzoylamino)benzoyl]-2,3,4,5-tetrahydro-1H-benzoazepine] in this work. An IC50 of 280 nM was found for Cc1ccccc1C(=O)Nc1ccc(C(=O)N2CCCC(CC(N)=O)c3cc(Cl)ccc32)cc1 (stereo not drawn) [Example 112, 5-Carbamoylmethyl-7-chloro-1-[4-(2-methylbenzoylamino)benzoyl]-2,3,4,5-tetrahydro-1H-benzoazepine] in this work. An IC50 of 250 nM was found for O=C(Nc1ccc(C(=O)N2CCCC(OCCO)c3cc(Cl)ccc32)cc1)c1ccccc1Cl (stereo not drawn) [Example 113] in this work. An IC50 of 170 nM was found for COc1cc(NC(=O)c2ccccc2Br)ccc1C(=O)N1CCCC(CC(=O)N2CCCC2)c2cc(F)ccc21 (stereo not drawn) [Example 114] in this work. An IC50 of 2100 nM was found for Cc1ccccc1C(=O)Nc1ccc(C(=O)N2CCCC(CC(=O)N3CCNCC3)c3cc(Cl)ccc32)c(C)c1 (stereo not drawn) [Example 115] in this work. An IC50 of 380 nM was found for CN1CCN(C(=O)CC2CCCN(C(=O)c3ccc(NC(=O)c4ccccc4Cl)cc3)c3ccc(Cl)cc32)CC1 (stereo not drawn) [Example 116] in this work. An IC50 of 320 nM was found for COc1cc(C(=O)N2CCCC(CC(=O)N3CCN(C)CC3)c3cc(Cl)ccc32)ccc1NC(=O)c1ccccc1Cl (stereo not drawn) [Example 117, 5-(4-Methyl-1-piperazinyl)carbonylmethyl-7-chloro-1-[3-methoxy-4-(2-chlorobenzoylamino)benzoyl]-2,3,4,5-tetrahydro-1H-benzoazepine.cndot.hydrochlorid] in this work. An IC50 of 3200 nM was found for Cc1ccccc1C(=O)Nc1ccc(C(=O)N2CCCC(CC(=O)N3CCC(N(C)C)CC3)c3cc(Cl)ccc32)c(C)c1 (stereo not drawn) [Example 118, 5-(4-Dimethylamino-1-piperidinyl)carbonylmethyl-7-chloro-1-[2-methyl-4-(2-methylbenzoylamino)benzoyl]-2,3,4,5-tetrahydro-1H-benzoazepine.cndot.hydrochloride] in this work. An IC50 of 270 nM was found for COc1cc(C(=O)N2CCCC(CC(=O)N3CCN(C)CC3)c3cc(Cl)ccc32)ccc1NC(=O)c1ccccc1Br (stereo not drawn) [Example 119, 5-(4-Methyl-1-piperazinyl)carbonylmethyl-7-chloro-1-[3-methoxy-4-(2-bromobenzoylamino)benzoyl]-2,3,4,5-tetrahydro-1H-benzoazepine] in this work. An IC50 of 190 nM was found for COc1cc(C(=O)N2CCCC(CC(=O)N(C)C)c3cc(Cl)ccc32)ccc1NC(=O)c1ccccc1Br (stereo not drawn) [Example 120, 5-Dimethylaminocarbonylmethyl-7-chloro-1-[3-methoxy-4-(2-bromobenzoylamino)benzoyl]-2,3,4,5-tetrahydro-1H-benzoazepine] in this work. An IC50 of 2300 nM was found for C=CCNCCC1CCCN(C(=O)c2ccc(NC(=O)c3ccccc3Cl)cc2C)c2ccc(Cl)cc21 (stereo not drawn) [Example 121, 5-(2-Allylaminoethyl)-7-chloro-1-[2-methyl-4-(2-chlorobenzoylamino)benzoyl]-2,3,4,5-tetrahydro-1H-benzoazepine] in this work. An IC50 of 2200 nM was found for CNC(=O)CC1CCCN(C(=O)c2ccc(NC(=O)c3ccccc3Cl)cc2C)c2ccc(Cl)cc21 (stereo not drawn) [Example 122, 5-Methylaminocarbonylmethyl-7-chloro-1-[2-methyl-4-(2-chlorobenzoylamino)benzoyl]-2,3,4,5-tetrahydro-1H-benzoazepine] in this work. An IC50 of 2200 nM was found for Cc1cc(NC(=O)c2ccccc2Cl)ccc1C(=O)N1CCCC(CC(N)=O)c2cc(Cl)ccc21 (stereo not drawn) [Example 123] in this work. An IC50 of 2800 nM was found for Cc1ccccc1C(=O)Nc1ccc(C(=O)N2CCCC(CCN3CCOCC3)c3cc(Cl)ccc32)c(C)c1 (stereo not drawn) [Example 124, 5-Morpholinoethyl-7-chloro-1-[2-methyl-4-(2-methylbenzoylamino)benzoyl]-2,3,4,5-tetrahydro-1H-benzoazepine] in this work. An IC50 of 2190 nM was found for Cc1ccccc1C(=O)Nc1ccc(C(=O)N2CCCC(CC(N)=O)c3cc(Cl)ccc32)c(Cl)c1 (stereo not drawn) [Example 173, 5-Carbamoylmethyl-7-chloro-1-[2-chloro-4-(2-methylbenzoylamino)benzoyl]-2,3,4,5-tetrahydro-1H-benzoazepine] in this work. An IC50 of 1050 nM was found for CC(=O)N1CCN(CCC2CCCN(C(=O)c3ccc(NC(=O)c4ccccc4C)cc3Cl)c3ccc(Cl)cc32)CC1 (stereo not drawn) [Example 174, 5-[2-(4-Acetyl-1-piperazinyl)ethyl]-7-chloro-1-[2-chloro-4-(2-methylbenzoylamino)benzoyl]-2,3,4,5-tetrahydro-1H-benzoazepine] in this work. An IC50 of 13 nM was found for CCN(CC)CCN(CC)C(=O)CC1CCCN(C(=O)c2ccc(NC(=O)c3ccccc3Cl)cc2OC)c2ccc(Cl)cc21 (stereo not drawn) [Example 175, 5-[N-(2-Diethylaminoethyl)-N-ethylamino]-carbonylmethyl-7-chloro-1-[2-methoxy-4-(2-chlorobenzoylamino)benzoyl]-2,3,4,5-tetrahydro-1H-benzoazepine] in this work. An IC50 of 387 nM was found for COc1cc(NC(=O)c2ccccc2Cl)ccc1C(=O)N1CCCC(OCCn2cncn2)c2cc(Cl)ccc21 (stereo not drawn) [Example 176, 5-[2-(1,2,4-Triazol-1-yl)ethoxy]-7-chloro-1-[2-methoxy-4-(2-chlorobenzoylamino)benzoyl]-2,3,4,5-tetrahydro-1H-benzoazepine] in this work. An IC50 of 258 nM was found for COc1cc(NC(=O)c2ccccc2Cl)ccc1C(=O)N1CCCC(OCCNC2CCCC2)c2cc(Cl)ccc21 (stereo not drawn) [Example 177, 5-(2-Cyclopentylaminoethoxy)-7-chloro-1-[2-methoxy-4-(2-chlorobenzoylamino)benzoyl]-2,3,4,5-tetrahydro-1H-benzoazepine] in this work. An IC50 of 969 nM was found for CN1CCN(C(=O)CC2CCCN(C(=O)c3ccc(NC(=O)c4ccccc4)cc3)c3ccc(Cl)cc32)CC1 (stereo not drawn) [Example 178, 5-(4-Methyl-1-piperazinyl)carbonylmethyl-7-chloro-1-(4-benzoylaminobenzoyl)-2,3,4,5-tetrahydro-1H-benzoazepine] in this work. An IC50 of 2600 nM was found for COc1cc(NC(=O)c2ccccc2Cl)ccc1C(=O)N1CCC=C(CCN2CCN(C(C)=O)CC2)c2cc(Cl)ccc21 [Example 179, 5-[2-(4-Acetyl-1-piperazinyl)ethyl]-7-chloro-1-[2-methoxy-4-(2-chlorobenzoylamino)benzoyl]-2,3,-dihydro-1H-benzoazepine] in this work.
